Data taken from patent US9802985B2, “Pharmaceutical composition for treatment of the pulmonary form of altitude sickness caused by lack of oxygen and reduced air pressure” (APEPTICO FORSCHUNG UND E[…], priority 2012, dated 2017).
“Also recorded” adds a separate entry of the source. No end group written: not given here.

Legend:
[1] = molecular target: T1, amiloride-sensitive epithelial sodium ion channel (ENaC) (Homo sapiens, UniProt P37088+P51168+P51170); test: whole cell patch clamp test with A549 cells (Example 3); type: cell-based; conditions: for effect on the Na+ flow / ENaC (in words) / effect on the Na+ flow (in words): whole cell patch clamp; for effect on the Na+ flow / ENaC (in words): 300 nM in bath solution, n=3
T1 construct: the human alveolar epithelial cell line A549 was used; endogenous in cells; host or cells: A549 (human alveolar epithelial cell line)
T1 sequence (P51168 whole entry): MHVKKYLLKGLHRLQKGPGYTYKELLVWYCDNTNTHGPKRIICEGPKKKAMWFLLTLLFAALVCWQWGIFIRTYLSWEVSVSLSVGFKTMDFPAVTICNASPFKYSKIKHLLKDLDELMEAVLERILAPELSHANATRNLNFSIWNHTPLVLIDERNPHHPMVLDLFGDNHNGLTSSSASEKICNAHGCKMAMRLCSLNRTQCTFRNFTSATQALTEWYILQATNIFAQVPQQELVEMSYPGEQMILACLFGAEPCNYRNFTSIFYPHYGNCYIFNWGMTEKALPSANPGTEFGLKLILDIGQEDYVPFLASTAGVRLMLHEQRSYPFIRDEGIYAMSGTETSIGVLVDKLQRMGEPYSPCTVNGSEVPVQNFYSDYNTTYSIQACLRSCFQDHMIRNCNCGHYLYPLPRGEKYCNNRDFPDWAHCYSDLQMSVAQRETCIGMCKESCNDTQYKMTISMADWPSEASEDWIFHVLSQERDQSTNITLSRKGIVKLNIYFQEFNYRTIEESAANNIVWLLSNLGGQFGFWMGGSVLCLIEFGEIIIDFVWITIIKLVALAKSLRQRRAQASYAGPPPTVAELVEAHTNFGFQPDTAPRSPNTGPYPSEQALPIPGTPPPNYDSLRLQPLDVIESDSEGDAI
T1 sequence (P37088 whole entry): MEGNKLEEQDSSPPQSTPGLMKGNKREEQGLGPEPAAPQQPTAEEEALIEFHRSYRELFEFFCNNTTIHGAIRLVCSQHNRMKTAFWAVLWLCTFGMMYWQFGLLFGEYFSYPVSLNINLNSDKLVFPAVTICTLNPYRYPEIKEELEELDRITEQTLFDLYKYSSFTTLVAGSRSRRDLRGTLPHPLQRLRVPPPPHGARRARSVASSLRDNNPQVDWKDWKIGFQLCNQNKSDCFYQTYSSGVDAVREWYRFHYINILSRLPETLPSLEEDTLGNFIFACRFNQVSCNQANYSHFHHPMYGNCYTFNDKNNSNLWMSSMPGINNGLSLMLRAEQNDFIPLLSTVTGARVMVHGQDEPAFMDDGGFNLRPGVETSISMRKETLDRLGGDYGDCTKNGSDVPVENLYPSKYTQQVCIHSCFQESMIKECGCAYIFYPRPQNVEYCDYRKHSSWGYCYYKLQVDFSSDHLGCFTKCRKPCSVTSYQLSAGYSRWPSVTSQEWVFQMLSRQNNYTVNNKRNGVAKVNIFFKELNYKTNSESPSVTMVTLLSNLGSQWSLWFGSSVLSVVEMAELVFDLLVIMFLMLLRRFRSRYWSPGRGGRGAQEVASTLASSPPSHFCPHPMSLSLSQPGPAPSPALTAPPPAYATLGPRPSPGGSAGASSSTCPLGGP
T1 sequence (P51170 whole entry): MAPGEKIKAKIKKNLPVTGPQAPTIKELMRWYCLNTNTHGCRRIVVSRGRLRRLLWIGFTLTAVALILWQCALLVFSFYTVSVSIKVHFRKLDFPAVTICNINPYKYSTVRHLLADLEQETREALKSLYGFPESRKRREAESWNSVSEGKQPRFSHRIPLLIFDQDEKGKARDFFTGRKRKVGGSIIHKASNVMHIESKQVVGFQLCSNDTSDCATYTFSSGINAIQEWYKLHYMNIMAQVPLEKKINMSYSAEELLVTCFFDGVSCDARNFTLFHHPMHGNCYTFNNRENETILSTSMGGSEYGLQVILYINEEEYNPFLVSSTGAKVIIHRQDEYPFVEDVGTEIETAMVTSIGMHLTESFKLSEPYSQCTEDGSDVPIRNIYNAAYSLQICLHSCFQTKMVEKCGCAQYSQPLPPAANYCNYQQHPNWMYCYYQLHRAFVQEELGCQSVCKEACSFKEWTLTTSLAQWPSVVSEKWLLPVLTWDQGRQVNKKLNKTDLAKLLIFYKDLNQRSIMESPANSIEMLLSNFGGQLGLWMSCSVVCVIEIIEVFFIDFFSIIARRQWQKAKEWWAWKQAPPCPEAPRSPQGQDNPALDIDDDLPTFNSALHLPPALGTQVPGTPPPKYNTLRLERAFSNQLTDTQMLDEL
Text: According to patent application EP 2 009 023 A1, the so-called transepithelial electrical resistance (TEER) test was used for the screening of anti-lung oedema active ingredient candidates. The “TEER test” is not an established test for the prediction of fluid clearance in lung oedemas (this test can not be found in the relevant scientific literature and also has no relevance with regard to the cells being used (Calu-3 cells) in a model for gas exchange in the human lung). In the present example—in addition to the peptide according to the invention—the peptides […], […] and (cyclized) […] were investigated by means of a whole cell patch clamp assay, an established methodology for the measurement of ion movement over the cell membranes and especially for the measuring of the sodium transport over the cell membrane of alveolar epithelial cells (Eaton et al., Fed. Proc. 45 (1986), 2707; Hamill et al., Pflugers Arch. 391 (1981) 85-100. Here it was to be tested whether or not the peptides can activate the amiloride-sensitive epithelial sodium flow in lung cells.
The whole cell patch clamp test using A549 cells took place as described in Hazemi et al. (J. Med. Chem. 53 (2010), 8021-8029). […] In cases where an increase of the flow after addition of a given peptide was observed, an amiloride solution (to […] final concentration) was added to the bath solution—after the flow reached a stationary state —, in order to differentiate the amiloride-sensitive from the amiloride-insensitive flow. The amiloride-sensitive flow was then calculated by subtracting the flow value after addition of amiloride (amiloride-insensitive) from the flow value of the stationary state before the addition of amiloride. For each peptide, three experiments were carried out in different A549 cells (n=3).

[2] = molecular target: T2, amiloride-sensitive sodium ion channel (ENaC) (Homo sapiens, UniProt P37088+P51168+P51170); test: whole cell patch clamp on A549 cells, amiloride-sensitive sodium ion flow, EC50 (Example 4); type: cell-based
T2 construct: Macroscopic sodium ion flows were derived from human lung epithelial cells A549; endogenous in cells; host or cells: A549 (human lung epithelial cells)
T2 sequence (P37088 whole entry): as the sequence (P37088 whole entry) above
T2 sequence (P51168 whole entry): as the sequence (P51168 whole entry) above
T2 sequence (P51170 whole entry): as the sequence (P51170 whole entry) above
Text: The activity of the individual peptides is indicated as EC50 (in nM).

[3] = tested on: interleukin-6 (IL-6) secretion in human full blood; test: ex vivo release of interleukin-6 from fresh human full blood cultures (ELISA); type: cell-based; conditions: for Concentration of IL-6: human full blood, 24 hours, n=5
Experimental: In this study, fresh full blood was used; this is a recognized prediction model for the assessment of the inflammatory reaction in vivo.
The aim of this study was to determine the pro-inflammatory signal capacity of the peptide SEQ ID NO: 1.
Full blood (FB) cultures were carried out by pipetting 1 ml FB in depressions of 24-well plates. In each experiment, unstimulated and stimulated control cultures were included.
If possible, the substances and stimulants to be examined were always used in the same volume in each well in a given experiment, which is not greater than 10% of the total volume in a well. Unstimulated controls took place with PBS. Volume adjustment and dilutions for different treatments were likewise carried out with PBS.
The content of each well was mixed and the plates were incubated at 37° C. and 5% CO2 for 24 hours. After incubation, the content of each well was transferred into a fresh 1.5 ml microtube and centrifuged at 8000 to 9000×g for 15 minutes. The supernatant of each sample was divided individually to two 1.5 ml reaction vessels and stored at −20° C. until use.
Interleukin-6 was quantified by means of a specific ELISA (Human IL-6 ELISA-Set, BD Biosciences, Cat. No. 555220) using an anti-human-IL-6 antibody as capture antibody, a biotinylated anti-human IL-6 detection antibody, avidin horseradish peroxidise conjugate as enzyme reagent and recombinant IL-6 as standard. Absorption measurement at 450 nm was carried out with the Packard Fusion reader.
The results of each plate were stored and evaluated with the fusion data analysis software. […]

[4] = tested on: pulmonary form of altitude sickness in rats; test: experimental rat model of the pulmonary form of altitude sickness (physical activity under reduced oxygen and air pressure); type: in vivo, rat (Sprague Dawley)
Text: Physical exertion under conditions of reduced oxygen and air pressure, such as occur at high altitudes, are the 2 main factors which lead to the development of the pulmonary form of altitude sickness. Therefore, the selected rat model, in which the rats carried out physical activity under conditions of reduced oxygen and reduced air pressure, simulates a physically strenuous ascent to high altitudes. This takes place without carrying out a prior acclimatization. This corresponds to the scenario such as is to be found in the case of mountaineers who suffer from the pulmonary form of altitude sickness at high altitudes. In the model which was used, the rats develop the typical symptoms for the pulmonary form of altitude sickness, as is to be read in the “intensity of the pulmonary form of altitude sickness”, the increased protein concentration in the lung fluid and the histological appearance of the lung tissue. It is further to be noted that the lung damage in this model is not caused by administration of endotoxins, microbes or other agents which are damaging to the lung. […] Also, no specific strain of rat was used for this experiment. Therefore, this rat model is well suited to investigate a medicament for the treatment of the pulmonary form of altitude sickness.
Laboratory rats (Sprague Dawley rats) carried out physical activity through external stimulation for 48 hours under conditions of reduced oxygen and air pressure. Here, the air pressure was reduced to a value below 430 Torr, so that a height of over 4500 m was simulated. A prior acclimatization of the rats to the height of over 4500 m was not carried out. During this time, the rats were able to undertake a 15-20 minute pause every 4 hours in order to take in water and food. […] The lungs were then removed and the intensity of the pulmonary form of altitude sickness was determined (FIG. 1), the protein content in the lung fluid was determined (FIG. 2) and the histological appearance of the lung tissue was determined (FIG. 3).

[5] = intratracheal 100, 300 and 600 μg/rat (especially 300 μg), 4 hours after administration

Question: “CGTKPIELGPDEPKAVC (not fully specified (bridges); also: cyclic)” was tested. Which “effect on the Na+ flow / ENaC (in words)” value [1] did it give?
Answer: The value was “no activating effect; also recorded: no effect on the flow; also recorded: none of the other three peptides had an influence on the flow”.

Question: How did the “Na+ flow after subsequent addition of amiloride” value ([1]; after AP301 240 nM, amiloride 100 mM in bath solution) turn out when N=C(N)NC(=O)c1nc(Cl)c(N)nc1N [amiloride] was run?
Answer: Its value is 36 pA.

Question: QRETPEGAEAKPWY was tested. Which “effect on the Na+ flow / ENaC (in words)” value [1] did it give?
Answer: Its value is “no activating effect; also recorded: no effect on the flow; also recorded: none of the other three peptides had an influence on the flow”.

Question: For CGQREAPAGAAAKPWYC [SEQ ID NO: 19], which “EC50 (nM), cellular amiloride-sensitive sodium ion flow” value ([2]; A549 cells, whole cell patch clamp, concentration at 50% of maximum increase of flow) is on record?
Answer: Its value is “No activity”.

Question: And the “activity on the amiloride-sensitive sodium ion channel (in words)” value ([2]; A549 lung cells)?
Answer: Its value is “not active”.

Question: Which “effect on the Na+ flow / ENaC (in words)” value [1] does the source give for TKPIELGPDEPKAV here?
Answer: Its value is “no activating effect; also recorded: no effect on the flow; also recorded: none of the other three peptides had an influence on the flow”.

Question: Which results are given for C[C@@H]1NC(=O)CNC(=O)[C@H](CCC(=O)O)NC(=O)[C@@H]2CCCN2C(=O)[C@H]([C@@H](C)O)NC(=O)[C@H](CCC(=O)O)NC(=O)[C@H](CCCNC(=N)N)NC(=O)[C@H](CCC(N)=O)NC(=O)CNC(=O)[C@@H](N)CSSC[C@@H](C(=O)O)NC(=O)[C@H](Cc2ccc(O)cc2)NC(=O)[C@H](Cc2c[nH]c3ccccc23)NC(=O)[C@@H]2CCCN2C(=O)[C@H](CCCCN)NC(=O)[C@H](C)NC(=O)[C@H](CCC(=O)O)NC1=O [SEQ ID NO: 1]?
Answer: induction of IL-6 secretion (in words) ([3]; human full blood cultures of five healthy donors, all tested concentrations (10 μg/ml to 1 ng/ml)): did not induce any detectable amount of IL-6 secretion; also recorded: induced no detectable level of IL-6; TNF receptor binding activity (concluded from absent IL-6 release) ([3]; human full blood ex vivo model): does not have TNF receptor binding activity; Concentration of IL-6 [3]: less than 0.5 pg/ml; Concentration of IL-6 ([3]; test concentration 1 ng/ml): less than 0.5 pg/ml; Concentration of IL-6 ([3]; test concentration 3 ng/ml): less than 0.5 pg/ml; Concentration of IL-6 ([3]; test concentration 1 mg/ml): less than 0.5 pg/ml; amiloride-sensitive Na+ flow after addition of the peptide ([1]; 240 nM, increased from 50 pA, flow minus amiloride-insensitive flow): 1037 pA; effect on the Na+ flow (in words) ([1]; 240 nM in bath solution): induced an increase of the sodium flow over that of the control value; effect on the Na+ flow (in words) ([1]; 240 nM in bath solution, listed as AP301): immediate intensifying effect; active Na+ flow after addition of the peptide (maximum) ([1]; whole cell, clamped at -100 mV, 240 nM in bath solution, control value 86 pA±5 pA): 1073±15 pA; histological appearance of lung tissue ([4]; 4 hours after intratracheal administration): comparable with healthy lung tissue of the control rats; intensity of the pulmonary form of altitude sickness [4, 5]: led to reduction of the intensity of the pulmonary form of altitude sickness; protein concentration in the lung fluid [4, 5]: led to reduction of the protein concentration in the lung fluid
